Source: article PMC10630959, “Dissimilar Effect of P-Glycoprotein and Breast Cancer Resistance Protein Inhibition on the Distribution of Erlotinib to the Retina and Brain in Humans and Mice” (Molecular Pharmaceutics, 2023)
Entries after “also recorded” stand apart in the source; their conditions may differ. Where two headings read alike, the source gives them in different places.

How the values were obtained:
[1] = tested on: OCTs, OCTNs and OATPs at the mouse BBB; test: [^3H]erlotinib in situ carotid perfusion, brain transport with SLC transporter inhibitors; format: in vivo; conditions: 100 μM fexofenadine, 5 mM TEA, 100 μM estrone-3-sulfate, 0.5 mM ergothioneine, 5 mM L-carnitine
Procedure: (§1) Transport of [^3H]erlotinib at the luminal BRB and BBB was measured by in situ carotid perfusion.[11],[25] With this method, the vascular composition of the brain and the eye is completely substituted by an artificial fluid, whose constitution can be modified. The perfusion fluid for the in situ carotid perfusion consisted of Krebs carbonate-buffered physiological saline with 128 mM NaCl, 24 mM NaHCO3, 4.2 mM KCl, 2.4 mM NaH2PO4, 1.5 mM CaCl2, 0.9 mM MgSO4, and 9 mM D-glucose, warmed to 37 °C and gassed with 95% O2/5% CO2 to adjust the pH to 7.40. The pH of the perfusion fluid was checked and adjusted with a digital pH meter (±0.05 pH units) immediately before perfusion. Tissue accumulation of [^3H]erlotinib was measured under trans-influx zero to determine the kinetic conditions required to measure transport solely across the membrane, separating the sucrose (vascular) from the nonsucrose (tissue parenchyma) space. […] The first membrane (luminal/vascular) delimiting the sucrose space is the only kinetic interface that affects the distribution parameters of [^3H]erlotinib.
(§2) Mice were anesthetized with ketamine and xylazine (140 and 8 mg/kg, intraperitoneal), and a catheter was inserted into the right carotid artery after ligation of the appropriate vessels. Just before perfusion, the heart was cut. Perfusion started immediately at a constant flow rate of 2.5 mL/min. […] Perfusion was terminated by decapitating the mouse after 60 s. The right eye (without the optic nerve) and the right cerebral hemisphere were removed from the skull and dissected on a freezer pack. The tissues and aliquots of perfusion fluid were weighted, digested (Solvable; PerkinElmer), and mixed with Ultima-gold XR (PerkinElmer). Dual-label counting was carried out in a Tri-Carb 2810TR instrument (PerkinElmer) to measure radioactivity (disintegrations per minute, dpm). […] Therefore, radioactivity in the whole eye was assumed to represent only the posterior segment of the eye, which comprises the retina.
(§3) Calculations were performed as described previously.[11],[25] The initial transport rate, also called brain-eye clearance, expressed as Kin (μL/s/g) was selected as the main outcome parameter. The brain and eye tissue “vascular” volume (Vv; μL/g) was estimated by using the [^14C]sucrose distribution volume. The data for any mouse for which Vv was different from the normal values[25] were excluded from the analysis.

[2] = tested on: OCTs, OCTNs and OATPs at the mouse BRB; test: [^3H]erlotinib in situ carotid perfusion, retina transport with SLC transporter inhibitors; format: in vivo; conditions: 100 μM fexofenadine, 5 mM TEA, 100 μM estrone-3-sulfate, 0.5 mM ergothioneine, 5 mM L-carnitine
Procedure: as §1, §2, §3

[3] = tested on: P-gp and BCRP at the human BRB and BBB; parameters: method as in PMID 34220523; conditions: cited from earlier work
[4] = tested on: P-gp and BCRP at the mouse BBB
[5] = tested on: P-gp and BCRP at the mouse BRB
[6] = tested on: P-gp and BCRP at the human blood–retina barrier (BRB); test: [^11C]erlotinib PET, distribution to the human retina, baseline vs P-gp and/or BCRP inhibition; format: in vivo
Procedure: (§4) Medication-free male (n = 20) and female (n = 2) subjects, who were judged to be healthy based on the screening examinations (past medical history, physical examination, blood and urine tests), were enrolled into the study and allocated to the tariquidar (n = 5) or erlotinib group (n = 17).
(§5) The second scan was performed on the same day for the tariquidar group or on a separate day for the erlotinib group. […] The total administered dose of tariquidar was of 5.6 ± 0.6 mg/kg body weight. For the erlotinib group (n = 17), the second PET scan was acquired approximately 3 h after oral intake of 300 mg (n = 7), 650 mg (n = 8), or 1000 mg (n = 2) of erlotinib (Tarceva; Roche Pharma, 50 and 150 mg tablets).[22] […] In addition to the PET scans, magnetic resonance imaging (MRI) of the head (T1-weighted; Magnetom Skyra 3.0-T MRI, Siemens Medical Solutions) was performed on all participants.
(§6) As described previously,[22] serial arterial blood samples were collected during the two PET imaging sessions in both groups. Venous blood samples were collected at baseline and hourly for 8 h and at approximately 21 h after oral erlotinib intake for determination of erlotinib plasma concentrations. A gamma counter, which was cross-calibrated with the PET camera, was used to determine the radioactivity concentrations in blood and plasma aliquots.
(§7) Volume of interest (VOI) analysis was conducted for the retina on MR-to-PET coregistered images using PMOD software (version 3.6; PMOD Technologies Ltd., Zürich, Switzerland). The retina VOI was outlined in a way to avoid spillover of radioactivity from adjacent anatomic structures (e.g., major blood vessels). The volume of the retina VOI was in the range of 0.8–0.9 cm^3. None of the dimensions of the retina VOIs were much smaller than 2 times the full width at half-maximum (2 × 4.36 mm) of the employed PET scanner, meaning that partial volume effects causing an underestimation of the true radiotracer concentration in the VOI were negligible. […] Time-activity curves (TACs) were extracted from the coregistered dynamic PET images and normalized to injected radioactivity amount per body weight and expressed in units of standardized uptake value (SUV). The area under the TACs in plasma (AUCplasma), the retina (AUCretina) and the brain (AUCbrain), from 0 to 60 min after radiotracer injection, was determined with Prism 9.5.0 software (GraphPad Software, La Jolla, CA, USA).

[7] = parameters: method as in PMID 26940368, PMID 30237210; conditions: under the PET inhibition protocols; cited from earlier work
[8] = tested on: healthy volunteers; parameters: method as in PMID 30237210; conditions: oral 1000 mg dose group; precluded inclusion of additional subjects; cited from earlier work
[9] = tested on: P-gp and BCRP at the human blood–brain barrier (BBB); test: [^11C]erlotinib PET, distribution to human whole brain gray matter, baseline vs P-gp and/or BCRP inhibition
Procedure: as §4, §5, §6, §7

[10] = parameters: method as in PMID 25165131; conditions: cited from earlier work
[11] = tested on: P-gp at the BBB; parameters: method as in PMID 25669913; conditions: human; i.v. tariquidar co-infusion protocol; cited from earlier work
[12] = tested on: P-gp at the human BRB; parameters: method as in PMID 27738009; conditions: i.v. tariquidar co-infusion; cited from earlier work
[13] = co-perfusion with 10 μM inhibitor
[14] = all combined oral erlotinib dose groups, p ≤ 0.001
[15] = oral erlotinib 300 mg, p ≤ 0.05
[16] = oral erlotinib 650 mg, p ≤ 0.05
[17] = co-perfusion with 20 μM inhibitor
[18] = all combined oral erlotinib doses, p ≤ 0.001
[19] = i.v. tariquidar infusion, p ≤ 0.05

C[N+](C)(C)C[C@H](O)CC(=O)[O-] [L-carnitine]
significant changes in brain [^3H]erlotinib transport on co-perfusion [1]: None
significant changes in retina [^3H]erlotinib transport on co-perfusion [2]: None

CC[N+](CC)(CC)CC [TEA, tetraethylammonium]
significant changes in brain [^3H]erlotinib transport on co-perfusion [1]: None
significant changes in retina [^3H]erlotinib transport on co-perfusion [2]: None

COc1cc2c(cc1OC)CN(CCc1ccc(NC(=O)c3cc(OC)c(OC)cc3NC(=O)c3cnc4ccccc4c3)cc1)CC2 [[^11C]tariquidar]
baseline distribution (VT) in the human retina relative to the human brain [3]: 4–5 times

COc1cc2c(cc1OC)CN(CCc1ccc(NC(=O)c3cccc4c(=O)c5cccc(OC)c5[nH]c34)cc1)CC2 [elacridar]
change in Kin of [^3H]erlotinib vs baseline [4, 13]: +277%
increase in [^3H]erlotinib distribution to the retina (Kin) vs baseline ([5]; mouse BRB, co-perfusion with 10 μM inhibitor): +114%

C[N+](C)(C)[C@@H](Cc1c[nH]c(=S)[nH]1)C(=O)[O-] [ergothioneine]
significant changes in brain [^3H]erlotinib transport on co-perfusion [1]: None
significant changes in retina [^3H]erlotinib transport on co-perfusion [2]: None

C#Cc1cccc(Nc2ncnc3cc(OCCOC)c(OCCOC)cc23)c1 [erlotinib]
change in AUCR of [^11C]erlotinib vs baseline scan [6, 14]: −31 ± 15%
change in VT of [^11C]erlotinib vs baseline scan [6, 14]: −41 ± 16%
change in AUCR of [^11C]erlotinib vs baseline scan [6, 15]: −34 ± 9%
change in VT of [^11C]erlotinib vs baseline scan [6, 15]: −44 ± 12%
change in AUCR of [^11C]erlotinib vs baseline scan [6, 16]: −31 ± 21%
change in VT of [^11C]erlotinib vs baseline scan [6, 16]: −42 ± 19%
change in Kin of [^3H]erlotinib vs baseline [4, 13]: +215%
change in Kin of [^3H]erlotinib vs baseline [4, 17]: +340%
effect of co-infusion of unlabeled erlotinib on Kin of [^3H]erlotinib in the retina ([5]; mouse, two different doses (10 or 20 μM)): did not decrease
unbound plasma concentration in humans [7]: approximately 0.4 μM
adverse events [8]: skin rash
change in AUCR of [^11C]erlotinib vs baseline scan [9, 18]: +15 ± 14%
change in VT of [^11C]erlotinib vs baseline scan [9, 18]: +20 ± 16%
change in AUCR of [^11C]erlotinib vs baseline scan ([9]; oral erlotinib 300 mg): no statistically significant changes
change in VT of [^11C]erlotinib vs baseline scan ([9]; oral erlotinib 300 mg): no statistically significant changes
change in AUCR of [^11C]erlotinib vs baseline scan ([9]; oral erlotinib 650 mg): statistically significant increase
change in VT of [^11C]erlotinib vs baseline scan ([9]; oral erlotinib 650 mg): statistically significant increase

C[C@]12CC[C@@H]3c4ccc(OS(=O)(=O)O)cc4CC[C@H]3[C@@H]1CCC2=O [estrone-3-sulfate]
significant changes in brain [^3H]erlotinib transport on co-perfusion [1]: None
significant changes in retina [^3H]erlotinib transport on co-perfusion [2]: None

COc1cc2ncnc(Nc3ccc(F)c(Cl)c3)c2cc1OCCCN1CCOCC1 [gefitinib]
pKa [10]: 5.4

COc1cc2c(cc1OC)CN(CCc1ccc(NC(=O)c3cc(OC)c(OC)cc3NC(=O)c3cnc4ccccc4c3)cc1)CC2 [tariquidar]
change in AUCR of [^11C]erlotinib vs baseline scan [6, 19]: −18 ± 8%
change in VT of [^11C]erlotinib vs baseline scan [6, 19]: −25 ± 8%
change in Kin of [^3H]erlotinib vs baseline [4, 13]: +270%
change in Kin of [^3H]erlotinib vs baseline [4, 17]: +280%
increase in brain distribution of (R)-[^11C]verapamil [11]: approximately 4 fold
increase in retinal VT of (R)-[^11C]verapamil [12]: 1.4 fold
unbound plasma concentration in humans [7]: ~30 nM
change in AUCR of [^11C]erlotinib vs baseline scan ([9]; i.v. tariquidar infusion): no significant changes
change in VT of [^11C]erlotinib vs baseline scan ([9]; i.v. tariquidar infusion): did not result in any significant changes; also recorded: no significant changes

C/C=C/C[C@@H](C)C(=O)[C@H]1C(=O)N[C@@H](C(C)C)C(=O)N(C)CC(=O)N(C)[C@@H](CC(C)C)C(=O)N[C@@H](C(C)C)C(=O)N(C)[C@@H](CC(C)C)C(=O)N[C@@H](C)C(=O)N[C@H](C)C(=O)N(C)[C@@H](CC(C)C)C(=O)N(C)[C@@H](CC(C)C)C(=O)N(C)[C@@H](C(C)C)C(=O)N1C [valspodar]
change in Kin of [^3H]erlotinib vs baseline [4, 13]: +120%

[^3H]erlotinib
Kin at the mouse BRB relative to the BBB ([5]; mouse, in vivo): approximately 2 times
